Data on 1 compound can be found in patent publication US20210190775A1, “COMPOSITIONS AND METHODS FOR TAGGING AND DETECTING NUCLEIC ACIDS” (Nanoco Technologies Ltd., priority 2019, published 2021).

Assay [1] deals with DNA threads mounted on a glass slide. As to the kind of experiment: Detection of DNA mounted on a glass slide by fluorescence microscopy. Format: binding. The settings on record: DNA 0.3 μg/mL, final dye concentration 0.4 mg/mL, 50× objective, DAPI filter cube. The protocol: The DNA binding and enhanced detection ability were also observed using trace amounts of DNA mounted on a glass slide. In this experiment, a DNA solution was prepared in DI water at 0.3 μg/mL and was mixed with the QD-fluorescent dye conjugate nanoparticles (Ex. 1) or with the Hoechst 33342 only (control experiment) at a final dye concentration of 0.4 mg/mL. A 3 μL solution of each composition was mounted on a slide, smeared and let to dry. The slide was then observed under a fluorescence microscope (Olympus BX51) using 50× objective and a DAPI filter cube (UMWU2) and equipped with an Osram HBO50W/AC L1 Short arc mercury lamp as an excitation source. […] All the images were taken using the same microscopy settings. FIG. 6 indicates an enhanced ability to detect DNA on a glass slide (zoomed in to show DNA strands covered with Hoechst-QDs).

Assay [2] relates to A431 human squamous cell carcinoma. As to the kind of experiment: Labelling of nuclear and cytoplasmic DNA or RNA in live cells. As to conditions: conjugate 50 μg/mL or Hoechst 33342 0.2 μg/mL, 15h. The assay is classed as cell-based.

Structures are written as SMILES.

On to `CCOc1ccc(-c2nc3cc(-c4nc5cc(N6CCN(C)CC6)ccc5[nH]4)ccc3[nH]2)cc1.Cl.Cl.Cl` [Hoechst 33342, 2′-(4-ethoxyphenyl)-5-(4-methyl-1-piperazinyl)-2,5′-bi-1H-benzimidazole trihydrochloride], for which the “detection of DNA threads on glass slide” value in assay [1] is “almost no signal was observed”. For the same compound, the “labelling of cells (fluorescence microscopy)” value in assay [2] is “the nuclei were stained but without the ability to detect cell-cell communication”.
